Earlier results as cited in patent US20250215044A1, “Compounds and Methods for Inhibiting LPA” (Ionis Pharmaceuticals, Inc., priority 2023, published 2025).

Test system: plasma Lp(a)
Set-up: concentration or dose not given beside the values
Details: clinical setting

First: CC(C)c1cc(Oc2c(Br)cc(NC(=O)CC(=O)O)cc2Br)ccc1O [Epirotirome]
Second: COc1cc(F)c(C(C)C)cc1-c1ccc(C(F)(F)F)cc1CN1C(=O)O[C@H](c2cc(C(F)(F)F)cc(C(F)(F)F)c2)[C@@H]1C [Anacetrapib]
The “reduction of plasma Lp(a) levels” value of the first is higher: 43% for the first, 36% for the second.

Compared with `O=C(NC1CCN(CCCCC2(C(=O)NCC(F)(F)F)c3ccccc3-c3ccccc32)CC1)c1ccccc1-c1ccc(C(F)(F)F)cc1` [Lomitapide], `CC(=O)Oc1ccccc1C(=O)O` [aspirin] is higher in “reduction of plasma Lp(a) levels” value: 17% for the first, 18% for the second.

Compared with `O=C(O)c1cccnc1` [Niaspan], Mipomersen is lower in “reduction of plasma Lp(a) levels” value: 39% for the first, 32% for the second.
